Patent US7453010B2, “Phenylcyclohexylpropanolamine derivatives, preparation and therapeutic application thereof” (Sanofi Aventis, priority 2002, dated 2008)

Structure (SMILES)	melting point [°C]
CS(=O)(=O)Nc1cc(OC[C@@H](O)CN[C@H]2CC[C@H](c3ccc(O)cc3)CC2)ccc1O [Compound 1, trans-N-{2-Hydroxy-5-[((2S)-2-hydroxy-3-{[4-(4-hydroxyphenyl)cyclohexyl]amino}propyl)oxy]phenyl}methanesulfonamide]	85 to 90
CCOC(=O)COc1ccc([C@H]2CC[C@H](NC[C@H](O)COc3ccc(O)c(NS(C)(=O)=O)c3)CC2)cc1 [Compound 2, Ethyl trans-(4-{4-[((2S)-2-hydroxy-3-{4-hydroxy-3-[(methylsulfonyl)amino]phenoxy}propyl)amino]cyclohexyl}phenoxy)acetate]	60 to 70
